row,Structure (SMILES),melting point
1,COc1cc(OC)nc(NC(=O)NS(=O)(=O)Cc2ccccc2C(=O)N(C)C)n1,141 to 143 °C
2,COc1ccc2c(c1)C=C(C(=O)O)CCO2,176 to 177 °C
3,CC(C)CCC(=O)C(C(=O)O)C1c2ccccc2C(=O)N1c1ccc2ccc(Cl)nc2n1 (stereo unspecified),176 °C
4,c1cncc(-n2cnnn2)c1,74 to 76 °C
5,COc1ccc2c(c1)c(CC(=O)OC(OC(C)=O)c1ccccc1)c(C)n2C(=O)c1ccc(Cl)cc1 (stereo unspecified),93 to 94 °C
6,CSc1ccc2sc3cc(F)ccc3c(=O)c2c1,135 to 138 °C
7,CC(Oc1ccccc1)c1nnc(N)s1 (stereo unspecified),157 to 167 °C
8,COCc1cc2c(nc(C)n2C)c(O)c1CCC(=O)c1ccccc1C,163 °C
9,O=C(NCCc1ccnc(-c2nc(=O)c3ccccc3s2)c1)c1ccccc1,217 to 219 °C
10,O=C(O)C1C=CCn2c(=O)n(CCCS)c(=O)n21 (stereo unspecified),119 to 121 °C
11,O=C1c2ccccc2C(=O)N1CSc1nnnn1-c1ccccc1,146 to 147 °C
12,O=[N+]([O-])c1cnc(Sc2n[nH]c(-c3cccs3)n2)s1,179 to 181 °C
13,Cc1cc(-n2ccnc2)c2cccc(OCc3c(Cl)ccc(S(=O)(=O)N4CCC[C@H]4C(=O)NCCc4ccccn4)c3Cl)c2n1,82 °C
14,O=C(O)C(=NO)C(c1ccc(OCc2ccc3cc(F)ccc3n2)cc1)c1ccc(OCc2ccc3cc(F)ccc3n2)cc1,107 °C
15,Cn1cc2c(=O)[nH]c(=S)[nH]c2n1,200 °C
16,N#Cc1ccc(OCC[C@@H](NC(=O)OCc2ccccc2)C(=O)OC(c2ccccc2)c2ccccc2)cc1,125 to 126 °C
17,O=C1CC(Cc2ccc(Cl)cc2Cl)CN1 (stereo unspecified),85 to 86 °C
18,O=C=Nc1ccc(Oc2cccc(Cl)n2)cc1,96 to 97 °C
19,CC(C)(C)OC(=O)N1CCn2c(c(C(N)=S)c(Cl)c2-c2cccnc2)C1,220 to 221 °C
20,NS(=O)(=O)c1cc(C(=O)OCC(=O)N2CCC[C@@H]2CO[N+](=O)[O-])c(NCc2ccco2)cc1Cl,64 to 66 °C
21,Cc1cc2c(cc1[N+](=O)[O-])C(C)(C)CCC2(C)C,143 to 144 °C
22,COC(=O)c1cc(-c2ccc(F)c(C)c2)nn(CC=Cc2ccc(Cl)cc2)c1=O,138 to 139 °C
23,COc1ccc2cc([C@H](C)C(=O)OCC(=O)N(C)CC(=O)OCCCO[N+](=O)[O-])ccc2c1,41 to 43 °C
24,CN1CCN(CCCCCCCCCOc2ccc3oc(-c4ccccc4)cc(=O)c3c2)CC1,77 to 80 °C
25,O=C(Oc1ccccc1)N1CCc2[nH]c3c(cnc4cc(Cl)ccc43)c2C1,> 250 °C
26,CCOC(=O)C(=O)Nc1cc(C(F)(F)F)c(S(=O)(=O)NC(=O)C(=O)OCC)cc1[N+](=O)[O-],175 to 180 °C

row,Structure (SMILES),melting point
1,O=[N+]([O-])c1ccc(OC2(c3ccccc3)CCN(Cc3ccccc3)CC2)cc1,135 to 137 °C
2,COc1ccc2c(c1)c(C)cn2CCCCCC(=O)O,134 to 137 °C
3,COc1cc(CCC[C@H]2OC(=O)NC2=O)ccc1OCc1nc(-c2ccco2)oc1C,122 to 123 °C
4,COC(=O)CC(C(=O)c1cccc(OCc2ccccc2)c1)c1ccccc1 (racemic),88 to 89 °C
5,CCCCCCCCCCCCCCc1ccc(CC)c(O)c1,59 to 60 °C
6,Oc1ccc(CCn2ccn(C3CCc4ccccc4C3)c2=S)cc1O (stereo unspecified),165 to 167 °C
7,CNC(=S)NC1=NN(c2ccc(Cl)cc2)CC1,237 °C
8,CCOC(=O)N1CCN(CCNc2ncnc3c2sc2nc(-c4ccoc4)c4c(c23)CC(C)(C)CC4)CC1,85.1 to 86.4 °C
9,Cc1oc2ccccc2c1C(=O)O,171 to 176 °C
10,COc1ccc(-c2nc(C)c(C(N)=O)s2)cc1OC,218 to 220 °C
11,Cc1c(C(=O)OCc2ccccc2)sc(NC(=O)c2ccccc2)c1C(=O)OC(C)(C)C,134 to 135 °C
12,CC(CCc1ccc(Cl)cc1)(Cn1ccnc1)Sc1cccc(Cl)c1Cl (stereo unspecified),126 to 128 °C
13,CCC1(CC(=O)O)OCCc2c1[nH]c1c(OCC(F)(F)F)cccc21 (stereo unspecified),126 to 129 °C
14,Cc1nc2c(C#N)c(C)nn2c(Cl)c1CCCl,113 to 115 °C
15,CCOC(=O)C(CBr)=C1C(=N)CCCC1=O,170 to 175 °C
16,CCN(C)c1nc(-c2ccc(OC)c(OC)c2)nc2sc(C#N)c(C)c12,133 to 135 °C
17,COc1cccc(C(O)c2cccnc2Cl)c1 (stereo unspecified),114 to 115 °C
18,CCOC(=O)c1cn2c3c(c(F)c(F)cc3c1=O)OCC21CCC1,255 to 256 °C
19,c1cnc2ccc(Cn3nnc4ccc(-c5ccc6c(c5)OCO6)nc43)cc2c1,179 to 181 °C
20,CC(C)(c1ccc(O)cc1)c1ccc(O)c(Cl)c1,106 to 107 °C
21,COc1cc(OC)nc(-c2c(N)n(S(=O)(=O)C(F)F)c3ccccc23)n1,156 to 158 °C
22,CC1(O)CCC(CN2CCC(=C3c4ccc(F)cc4Sc4ccc(C(F)(F)F)cc43)CC2)CC1 (stereo unspecified),80 to 90 °C
23,CC(=O)Nc1ccc(C(=O)N2CCN(CCc3ccc(Cl)cc3)CC2)cc1,147 to 149 °C
24,O=C1Nc2c(Cl)cc(Cl)c3cccc1c23,265 °C
25,COc1ccc(C2(C)C(=O)Nc3cc(OC)cc(Cl)c3C2=O)cc1 (stereo unspecified),222 to 224 °C
26,COc1ccc2nc(NC(=O)C(CC3CCCC3)c3ccc(S(=O)(=O)N4CCN(C(C)=O)CC4)cc3)sc2n1 (stereo unspecified),215 to 217 °C

row,Structure (SMILES),melting point
1,COc1cc(C)cc(OC)c1C(=O)CCl,82 to 84 °C
2,Cc1cc(-n2ccnc2)c2cccc(OCc3c(Cl)ccc(S(=O)(=O)N4CCC[C@H]4C(=O)N4CCN(Cc5cccnc5)CC4)c3Cl)c2n1,102 °C
3,Cc1ccc(N2N=C(C(N)=O)NC2c2c(F)cccc2F)cc1COCC(F)(F)C(F)(F)F (stereo unspecified),182 to 185 °C
4,Cc1nn(-c2ccc(F)cc2)c(C)c1C(=O)Nc1ccc(OCC(C)(C)C)c(C#N)c1,174 to 175 °C
5,COc1c([N+](=O)[O-])cc(C)c(C)c1[N+](=O)[O-],67.3 to 67.6 °C
6,Nc1sc(-c2ccoc2)c(CN(C2CCCCC2)C2CCCCC2)c1C(=O)c1ccc(Cl)cc1,132 to 135 °C
7,CC(N)Cc1ccc(C(N)=O)s1 (racemic),91 to 92 °C
8,COc1cccc2c(CCO)c(C)oc12,58 to 59 °C
9,Cc1cc(C)cc(CC(C)(C)NCC(O)c2cc(O)cc3c2OCC(=O)N3)c1 (stereo unspecified),235 to 238 °C
10,CNC(=O)N(O)Cc1cccs1,108 °C
11,COc1ccc(Cl)c(C)c1C=O,86 to 88 °C
12,COc1ccc2c(-c3ccc(Cl)cc3)noc2c1,148 to 149 °C
13,CCOC=Nc1c(C#N)cnn1-c1ccc(Cl)c(Cl)c1Cl,131 to 132 °C
14,NCCCN1CCC(c2c[nH]c3cc(F)ccc23)CC1,102 °C
15,CC(C)(C)OC(=O)N1CCC[C@@H]1[C@@H](NC(=O)c1ccc(Cl)cc1)NC(=NC#N)Nc1cccnc1,184 to 185 °C
16,CCOC(=O)C(C)(C)Oc1ccc(C(=O)Cc2ccccc2)cc1,110 to 113 °C
17,FC(F)(F)C(Cc1ccccc1)c1ccccc1 (stereo unspecified),58 to 61 °C
18,O=C(CO)c1ccc(F)c(F)c1Nc1ccc(I)cc1F,128 °C
19,CCCC(=O)C1=C(O)CC(c2ccc(OC)c(NC(C)=O)c2)CC1=O (stereo unspecified),102 to 106 °C
20,"CCCN1C(=O)C(NC(=O)Nc2cccc(N(C)c3nnn[nH]3)c2)N=C(N2CCN(C)CC2)c2ccccc21 (single isomer, unassigned; (-))",141 to 142 °C
21,CNc1n[nH]c(=S)n1C,213 °C
22,N#CCCSCc1nccc(NC(=S)NCC(F)(F)F)n1,108 to 110 °C
23,COc1ccc2c(c1OCc1ccccc1)CCN(C(C)=O)C2,94 to 95 °C
24,OC1(c2ccoc2)CN2CCC1CC2 (stereo unspecified),130 to 133 °C
25,CC(C)c1ccc(C2COc3cc(O)c(O)cc3C2)cc1 (stereo unspecified),129 to 131 °C
26,COC(=O)c1cc(=O)c2cc(C(F)(F)F)ccc2[nH]1,289 to 291 °C

row,Structure (SMILES),melting point
1,Cc1ccc(-c2c(N)ncnc2OCCO)cc1,91.5 to 93.5 °C
2,CN1C(=O)[C@H](NC(=O)CCc2ccccc2C(F)(F)F)N=C(c2ccccc2)c2ccccc21,110 to 113 °C
3,O=C(O)c1cccc2c1[nH]c1ccc(F)cc12,254 °C
4,CSC(=NC#N)NCCN1CCC(Nc2nc3cccnc3n2Cc2ccc(F)cc2)CC1,172 °C
5,NC(=O)CCCCc1c[nH]c2ccccc12,134 to 139 °C
6,Cc1cccc(Cl)c1CO,83 to 86 °C
7,COc1cc2c(Nc3ccc(Sc4nccn4C)c(Cl)c3)c(C#N)cnc2cc1/C=C/CCN(C)C,215 to 225 °C
8,CCc1oc2ccccc2c1C(=O)c1ccc(Br)c(S(N)(=O)=O)c1,202 to 206 °C
9,Nc1cc(-c2ccccc2CCN2CCN(c3nccn3-c3ccccc3)CC2)ccn1,140 to 142 °C
10,COc1cc(-c2cn(Cc3ccccc3)c(=O)c3ccccc23)cc(OC)c1OC,166 to 168 °C
11,O=C(O)Cc1ccc(-c2onc3ccccc23)cc1,179 to 181 °C
12,NS(=O)(=O)c1ccc(N2CC(CO)OC2=O)cc1 (stereo unspecified),154 to 156 °C
13,CCOC(=O)c1sc2cc(OCc3ccccc3)ccc2c1S(=O)c1ccccc1 (stereo unspecified),141 to 142 °C
14,Nc1ccccc1C(=O)NC1CCN(CCCOc2ccc3c4c(c(=O)oc3c2)CCC4)CC1,269 to 270 °C
15,CCc1c(F)c(=O)oc2cc(O)cc(O)c12,227 to 229 °C
16,CN(C)c1ccc(NC(=O)N(CC(C)(C)C)C[C@H]2CC[C@H](CN(CC(C)(C)C)C(=O)Nc3ccc(N(C)C)cc3)CC2)cc1,178 to 181 °C
17,COc1ccc(C(=O)Nc2c(Cl)cncc2Cl)c2c3ccccc3n(Cc3ccccc3)c12,215 to 217 °C
18,COc1ccc2c(c1)CCC(c1ccc(F)cc1)C2=O (stereo unspecified),124 to 127 °C
19,Nc1c(Cl)cc(C2=NNC(=O)Cc3cc4c(cc32)OCO4)cc1Cl,149 to 151 °C
20,CC(=O)N1CCN(CC(C)NC(=O)c2ccc3c(c2)c(-c2ccccc2)nn3C)CC1 (stereo unspecified),98.8 to 100 °C
21,CCN(CC)c1ccc(N(CC)CC)c(N2CCNCC2)n1,120 °C
22,COc1ccc2[nH]cc(C3=C(Cl)C(=O)C=C(Cl)C3=O)c2c1,195 to 196 °C
23,O=C(CCCCCBr)Nc1cc(Cl)c(O)c(Cl)c1,113 to 114 °C

# Reference: a melting point compilation (Tetko et al.; mined from patent text by program, amines drawn as free bases though some values may be those of a salt)
